Data reported in paper PMC7822874, “Chemoprotective antimalarials identified through quantitative high-throughput screening of Plasmodium blood and liver stage parasites” (Scientific Reports, 2021).
Where two headings read alike, the source gives them in different places.

Legend:
[1] = test system: Plasmodium falciparum Dd2 asexual blood stage parasites; assay: microbe, parasite or virus in culture; set-up: species or system Plasmodium falciparum Dd2 in human erythrocytes; single determination (one 11-point concentration-response curve); conditions: Plasmodium falciparum, DD2, Erythrocyte, 72 h; read-out: AC50
in vitro = conditions: human, HepG2-A16-CD81EGFP cells, uninfected
[2] = test system: P. berghei-ANKA-GFP-LucCON liver stage parasites in HepG2-A16-CD81EGFP cells; assay: P. berghei liver stage Pb-Luc assay, Method 1 (UCSD, 1536-well); assay type: cell-based, Plasmodium berghei; conditions: Plasmodium berghei, 48 h, average of 2 wells, 1536-well plate; for activity at 1 µM: nominal 1 uM (10 mM stock), […] for 15 mM, 1.2 uM for 12 mM, 2 uM for 20 mM stock; for activity at 3 µM: nominal 3 uM (10 mM stock), 4.5 uM for 15 mM, 3.6 uM for 12 mM, 6 uM for 20 mM stock; for all read-outs here: reference of the scale not given here
[3] = repeat 1, read-out: Pb-Luc signal, 1 uM, repeat 1
[4] = repeat 2, read-out: Pb-Luc signal, 1 uM, repeat 2
[5] = repeat 3, read-out: Pb-Luc signal, 1 uM, repeat 3
[6] = repeat 1, read-out: Pb-Luc signal, 3 uM, repeat 1
[7] = repeat 2, read-out: Pb-Luc signal, 3 uM, repeat 2
[8] = repeat 3, read-out: Pb-Luc signal, 3 uM, repeat 3
[9] = nominal 1 uM (10 mM stock), […] for 15 mM, 1.2 uM for 12 mM, 2 uM for 20 mM stock, average of 2 wells, repeat 2
[10] = nominal 3 uM (10 mM stock), 4.5 uM for 15 mM, 3.6 uM for 12 mM, 6 uM for 20 mM stock, average of 2 wells, repeat 2

SMILES | AC50 [1] [nM] | viability at 48 h, 1 µM (in vitro) [%] | viability at 48 h, 3 µM (in vitro) [%] | activity at 1 µM [2, 3] [%] | activity at 1 µM [2, 4] [%] | activity at 1 µM [2, 5] [%] | activity at 3 µM [2, 6] [%] | activity at 3 µM [2, 7] [%] | activity at 3 µM [2, 8] [%] | HepG2 viability signal, 1 uM, repeat 2 (HepG2-A16-CD81EGFP cells; [9]) [%] | HepG2 viability signal, 3 uM, repeat 2 (HepG2-A16-CD81EGFP cells; [10]) [%] | HepG2 viability signal, 1 uM, repeat 2 (HepG2-A16-CD81EGFP cells) [%] | HepG2 viability signal, 3 uM, repeat 2 (HepG2-A16-CD81EGFP cells) [%] | HepG2 viability signal, 1 uM, repeat 1 (HepG2-A16-CD81EGFP cells; nominal 1 uM (10 mM stock), […] for 15 mM, 1.2 uM for 12 mM, 2 uM for 20 mM stock, average of 2 wells, repeat 1) [%] | HepG2 viability signal, 3 uM, repeat 1 (HepG2-A16-CD81EGFP cells; nominal 3 uM (10 mM stock), 4.5 uM for 15 mM, 3.6 uM for 12 mM, 6 uM for 20 mM stock, average of 2 wells, repeat 1) [%] | viability at 48 h (in vitro) [%] | HepG2 viability, fourth HepG2 column (HepG2-A16-CD81EGFP cells) [%] | HepG2 viability, second HepG2 column (HepG2-A16-CD81EGFP cells) [%] | HepG2 viability, third HepG2 column (HepG2-A16-CD81EGFP cells) [%]
CCOC(=O)c1ccc2c(c1)[C@@H]1C=CC[C@@H]1[C@H](c1cccc(OC)c1OC)N2 [NCGC00100279-01] | 2660 | 97.9 | 105 | 74.5 | 94.6 | 122 | 60.1 | 74.5 | 64.8 | 100.32 | 102.96 |  |  |  |  |  |  |  | 
CC1CCCN(Cc2c(O)ccc3c(=O)c(-c4ccccc4Cl)c(C(F)(F)F)oc23)C1 (stereo not shown) [NCGC00100585-01] | 841 | 108 | 112 | 99.2 | 115 | 106 | 62.6 | 101 | 122 | 105.16 | 104.39 |  |  |  |  |  |  |  | 
CCC(=O)N1CCc2cc(Br)cc([S+](=O)([O-])N3CCCC(C(=O)Nc4ccc(OC)c(Cl)c4)C3)c21 (stereo not shown) [NCGC00106201-01] |  | 90.7 | 82.3 | 76.1 | 86.6 | 75.8 | 53.5 | 100 | 60 |  |  | 91.30 | 86.54 |  |  |  |  |  | 
COc1ccc(C2Sc3ccccc3N=C3C2=C(O)c2ccccc23)c(OC)c1OC (stereo not shown) [NCGC00108825-01] | 750 |  |  | 80.6 | 95.6 | 53.5 | 34.1 | 70.7 | 74.5 | 77.27 | 66.08 |  |  | 40.50 | 21.41 |  |  |  | 
CCN(c1ccccc1)[S+](=O)([O-])c1ccc(NC(=O)c2cc(=O)c3cc(C)ccc3o2)cc1 [NCGC00115963-01] |  |  |  |  |  |  |  |  |  |  |  |  |  |  |  | 97.5 | 95.01 | 97.84 | 94.20
COc1ccc(CN2CCCC3(C2)C(NC2CCCCC2)=NC(=O)N3c2cc(F)cc(F)c2)cc1 (stereo not shown) [NCGC00373972-01] |  | 107 | 105 | 89.2 | 98.6 | 137 | 120 | 103 | 87.7 | 102.91 | 99.86 |  |  |  |  |  |  |  | 
O=C(O)c1ccc(-c2nc3cnccc3[nH]2)cc1 [NCGC00375713-01] |  | 105 | 104 | 93.2 | 89.1 | 137 | 91.8 | 93.1 | 98.5 | 104.68 | 103.76 |  |  |  |  |  |  |  | 
O=C1NCc2ccccc2CC12CCCN(Cc1ccccc1)C2 (stereo not shown) [NCGC00377595-01] |  | 104 | 104 | 90.7 | 117 | 140 | 93.9 | 108 | 117 | 103.34 | 104.13 |  |  |  |  |  |  |  | 
C[C@H]1[C@@H]2[C@H]3OC(=O)[C@@H](C)[C@@H]3CC[C@@]2(C)CC[C@@H]1NC(=O)CC(C)(C)C [NCGC00392703-01] |  | 95.8 | 99 | 105 | 129 | 103 | 126 | 109 | 99.6 | 102.40 | 102.42 |  |  |  |  |  |  |  | 
COc1ccc(OC)c(NC(=O)c2ccc3c(c2)N([S+](=O)([O-])c2ccccc2)CC3)c1 [NCGC00430430-01] |  | 112 | 109 | 111 | 108 | 91.3 | 102 | 79.3 | 99.8 |  |  | 105.03 | 97.67 |  |  |  |  |  | 
COc1ccc(Cl)cc1[S+](=O)([O-])N1CCC2(CCCNC2)C1 (stereo not shown) [NCGC00431241-01] |  | 112 | 108 | 96.7 | 98.8 | 61.1 | 98.4 | 74.5 | 79.2 | 104.68 | 95.82 |  |  |  |  |  |  |  | 
CCOC(=O)C1(Cc2ccccc2C(F)(F)F)CCNCC1 [NCGC00433719-01] |  | 108 | 105 | 99.2 | 89.8 | 165 | 76.2 | 96.6 | 91.6 | 106.17 | 103.00 |  |  |  |  |  |  |  | 
COc1cccc(CN2CCC(Oc3ccc(-c4noc(C5CC5)n4)cc3)C2)c1 (stereo not shown) [NCGC00440915-01] |  | 102 | 96.6 | 92.7 | 110 | 96 | 64.2 | 65.8 | 35.3 | 97.97 | 94.86 |  |  |  |  |  |  |  | 
Cc1ccc([S+](=O)([O-])N2CCC(OC3CCN(Cc4ccccc4)CC3)CC2)c(C)c1 [NCGC00444944-01] |  | 111 | 107 | 76.1 | 74 | 76.6 | 78.2 | 61.2 | 56.1 | 105.13 | 100.76 |  |  |  |  |  |  |  | 
COc1ccccc1NC(=O)Cn1cccc1-c1nc(-c2ccc(F)cc2)no1 [NCGC00445349-01] |  | 107 | 107 | 128 | 112 | 138 | 108 | 129 | 93.3 | 104.40 | 104.77 |  |  |  |  |  |  |  | 
COc1ccc(-c2noc(-c3cccn3CC(=O)Nc3ccc(C)cc3Cl)n2)cc1F [NCGC00445494-01] |  | 99.5 | 104 | 118 | 111 | 98.1 | 77.8 | 91.7 | 106 | 100.81 | 103.68 |  |  |  |  |  |  |  | 
COc1ccc(-c2noc(-c3cccn3CC(=O)Nc3cccc(Cl)c3C)n2)cc1F [NCGC00445510-01] |  | 104 | 105 | 103 | 114 | 132 | 102 | 91.7 | 124 | 99.09 | 100.27 |  |  |  |  |  |  |  | 
CN1c2cc(C(=O)Nc3ccc(C(F)(F)F)cc3)ccc2C(=O)N2CCCCC21 (stereo not shown) [NCGC00452394-01] |  | 104 | 110 | 89.2 | 103 | 126 | 97.6 | 85.9 | 102 | 105.25 | 108.50 |  |  |  |  |  |  |  | 
Cc1ccccc1CC(=O)NCc1nnc2cc(-c3nc(C4CC4)no3)ccn12 [NCGC00457761-01] |  | 109 | 107 | 130 | 129 | 103 | 86.9 | 122 | 133 | 102.90 | 101.49 |  |  |  |  |  |  |  | 
